# Assays:
# [1] = tested on: non-sedated, non-naïve cynomolgus monkeys; assay: Intravenous infusion in non-sedated, telemeterized non-human primates: blood pressure, heart rate, ECG (Example 2); format: in vivo
# Method: Peptides were synthesized as in Example 1. […] Two non-naïve, telemeterized, male non-human primates (NHP “a” and “b”) were used for the test article(s) dosing regimen. […] Following a stabilized baseline period of approximately 30 minutes, one of the test article(s) was administered as an intravenous infusion via a femoral vein vascular access port (VAP) using a Pegasus PCA infusion pump for a period of 30 or 60 minutes. A minimum period of 30 minutes was allotted for the hemodynamic parameters to return to baseline prior to the next test article infusion dose. The process was repeated for each of the stated test articles. The same procedure was followed for the 1 hour infusion with 1 hour allotted for parameters to return to base line.
# The non-human primates were previously surgically prepared with telemetry transducers, type TL11M2-D70-PCT (Data Sciences International). The acquisition and analysis was done using a Ponemah (Version 4.8 or higher) data acquisition and analysis system installed on the hard drive of a computer. The computer was equipped with disk drive for file back up on readable write-once only optical media (CD-R or DVD-R).
# Prior to the first dose administration, baseline data was acquired. For each subsequent dose, data was collected for approximately 30 min postdose. Prior to the next dose, the hemodynamic parameters were allowed to return to a stable baseline±10%.
# Systolic blood pressure (SYS or SBP), diastolic blood pressure (DBP), mean arterial pressure (MAP), heart rate (HR), and all lead II ECG variables were recorded. The telemetry data files were transferred to an Excel (MicroSoft® Version 2003) spreadsheet. The following variables from the lead II ECG were measured: PR interval, QRS duration, QT interval, RR interval, and QTcF interval (calculated as
# A visual inspection of the entire collected ECG waveform for disturbances in rhythm and waveform morphology was performed. The data for selected time points were analyzed and assessed on completion of data acquisition and were the average of at least 30 beats (ABP and ECG) of data at the selected analysis time, when possible. The time points for both hemodynamic and ECG data analysis were an initial 30 min baseline prior to the first dose, at a 10 min during each infusion postdose interval relative to end of each infusion, and time points prior to the next test article infusion for each test compound.
# Non-human primates were selected because they have the same RAMP 1-CGRP receptor complex as humans.
# rats = conditions: 19 ng/kg/min; cited from earlier work
# [2] = NHP a, dose day 2, during 30 minute infusions of 0.024 ug/kg/min
# [3] = NHP a, dose day 3, during 30 minute infusions of 0.024 ug/kg/min
# [4] = NHP a, dose day 3, during 1 hour infusion of 0.024 ug/kg/min
# [5] = NHP b, dose day 2, during 30 minute infusions of 0.024 ug/kg/min
# [6] = NHP b, dose day 3, during 30 minute infusions of 0.024 ug/kg/min
# [7] = NHP b, dose day 3, during 1 hour infusion of 0.024 ug/kg/min
# [8] = average of a 2, b 2, a 3, b 3, during 30 minute infusions of 0.024 ug/kg/min
# [9] = average of a3, b3, during 1 hour infusion of 0.024 ug/kg/min
substance,measurement,setting,value
ACNTATCVTHRLAGLLSRSGGMVKSNFVPTNVGSKAF-NH2 [βCGRP],course of heart rate during 1 hour infusion,"[1]; 1 hour infusion of 0.024 ug/kg/min, after 30 minutes",Heart rate continues to drop after 30 minutes
same,"Percent change in HR, a 2",[1]; [2],1.2%
same,"Percent change in mean BP, a 2",[1]; [2],−8.8%
same,"Percent change in systolic BP, a 2",[1]; [2],−7.4%
same,"Percent change in HR, a 3",[1]; [3],−13.6%
same,"Percent change in mean BP, a 3",[1]; [3],−16.8%
same,"Percent change in systolic BP, a 3",[1]; [3],−12.2%
same,"Percent change in HR at 30 minutes, a3",[1]; [4],−13.6%
same,"Percent change in HR at 60 minutes, a3 1 hr",[1]; [4],−10.7%
same,"Percent change in mean systolic BP at 30 minutes, a3",[1]; [4],−16.8%
same,"Percent change in mean systolic BP at 60 minutes, a3 1 hr",[1]; [4],0.0%
same,"Percent change in systolic BP at 30 minutes, a3",[1]; [4],−12.2%
same,"Percent change in systolic BP at 60 minutes, a3 1 hr",[1]; [4],−0.8%
same,"Percent change in HR, b 2",[1]; [5],−21.3%
same,"Percent change in mean BP, b 2",[1]; [5],−6.7%
same,"Percent change in systolic BP, b 2",[1]; [5],−8.1%
same,"Percent change in HR, b 3",[1]; [6],−22.0%
same,"Percent change in mean BP, b 3",[1]; [6],−23.4%
same,"Percent change in systolic BP, b 3",[1]; [6],−23.2%
same,"Percent change in HR at 30 minutes, b3",[1]; [7],−22.0%
same,"Percent change in HR at 60 minutes, b3 1 hr",[1]; [7],−18.1%
same,"Percent change in mean systolic BP at 30 minutes, b3",[1]; [7],−23.4%
same,"Percent change in mean systolic BP at 60 minutes, b3 1 hr",[1]; [7],−10.7%
same,"Percent change in systolic BP at 30 minutes, b3",[1]; [7],−23.2%
same,"Percent change in systolic BP at 60 minutes, b3 1 hr",[1]; [7],−10.1%
same,"Percent change in mean HR, a 2","[1]; Table 14, NHP a, dose day 2, during 30 minute infusions of 0.024 ug/kg/min",1.2%
same,"Percent change in mean HR, a 3","[1]; Table 14, NHP a, dose day 3, during 30 minute infusions of 0.024 ug/kg/min",−13.6%
same,"Percent change in mean HR, b 2","[1]; Table 14, NHP b, dose day 2, during 30 minute infusions of 0.024 ug/kg/min",−21.3%
same,"Percent change in mean HR, b 3","[1]; Table 14, NHP b, dose day 3, during 30 minute infusions of 0.024 ug/kg/min",−22.0%
same,"Percent change in mean HR, HR","[1]; Table 14, average of a 2, b 2, a 3, b 3, during 30 minute infusions of 0.024 ug/kg/min",−13.9%
same,"Percent change in mean HR at 30 minutes, a3","[1]; Table 24, NHP a, dose day 3, during 1 hour infusion of 0.024 ug/kg/min",−13.6%
same,"Percent change in mean HR at 30 minutes, b3","[1]; Table 24, NHP b, dose day 3, during 1 hour infusion of 0.024 ug/kg/min",−22.0%
same,"Percent change in mean HR at 30 minutes, HR T30","[1]; Table 24, average of a3, b3, during 1 hour infusion of 0.024 ug/kg/min",−17.8%
same,"Percent change in mean HR at 60 minutes, a3 1 hr","[1]; Table 25, NHP a, dose day 3, during 1 hour infusion of 0.024 ug/kg/min",−10.7%
same,"Percent change in mean HR at 60 minutes, b3 1 hr","[1]; Table 25, NHP b, dose day 3, during 1 hour infusion of 0.024 ug/kg/min",−18.1%
same,"Percent change in mean HR at 60 minutes, HR T60","[1]; Table 25, average of a3, b3, during 1 hour infusion of 0.024 ug/kg/min",−14.4%
same,"Percent change in HR, HR",[1]; [8],−13.9%
same,"Percent change in mean BP, BP",[1]; [8],−13.9%
same,"Percent change in systolic BP, BP",[1]; [8],−12.7%
same,"Percent change in HR at 30 minutes, HR T30",[1]; [9],−17.8%
same,"Percent change in HR at 60 minutes, HR T60",[1]; [9],−14.4%
same,"Percent change in mean systolic BP at 30 minutes, BP T30",[1]; [9],−20.1%
same,"Percent change in mean systolic BP at 60 minutes, BP T60",[1]; [9],−5.4%
same,"Percent change in systolic BP at 30 minutes, T30",[1]; [9],−17.7%
same,"Percent change in systolic BP at 60 minutes, T60",[1]; [9],−5.4%
same,effect on heart rate,"[1]; non-sedated cynomolgus monkeys, IV infusion","maintenance of pre-administration heart rate, and in some cases, reduction in heart rate"
same,heart rate and blood pressure effect,rats,tachycardia with no significant hypotension
